# Data as given in patent publication US9879303B2, “Chromogenic glucuronidase substrates and uses” (Glycosynth Limited, priority 2013, dated 2018).
# Counter-ions that a name gives are not always drawn.
# Test system: E. coli clinical isolates
# Experiment: screen of strains on agar plates (CPS ID 3 or Columbia agar)
# Format: cell-based
# Design: key to colour: Red, Green, Black or Purple mean strong colour; Red, Green, Black or Purple mean strong colour; Red, Green, Black or Purple mean strong colour; Red, Green, Black or Purple mean strong colour; +/− means less colour than strong; Tr means a trace of colour, less than +/−; — means no colour
# Conditions: for colour: 37° C. 18 hours
# Excerpt: In order to obtain a fuller picture of the sensitivity of the substrates, they were screened with 100 different clinical isolates of E. coli in a liquid medium containing FAC. The isolates were chosen at random from the Microbiology Department, Freeman Hospital, Newcastle Upon Tyne, UK. The effectiveness of the new substrates was compared with three other media which all contained indoxyl-β-D-glucuronides. One was a commercial medium, CPS ID 3 (bioMérieux SA, Lyon, France). […] This medium was employed as a control. Among the β-D-glucuronidase producing strains of E. coli there is a large variation in the quantity of the enzyme produced and it is almost certain that the CPS ID 3 medium has been rigorously optimised to allow good growth of all the target organisms and maximum expression of the target enzymes. Therefore, two indoxyl glucuronides, X-β-D-glucuronide CHA salt and Rose-β-D-glucuronide CHA salt were also tested in a simple agar medium to allow a direct comparison of the sensitivity of these Indoxyl glucuronides when used in a medium that has not been optimised for the growth of the target organism. The comparison of the results for Rose-β-D-glucuronide and the CPS ID 3 medium was of particular significance as the commercial medium also uses Rose-β-D-glucuronide for the detection of E. coli. For consistency, the four glucuronides were all chosen as their CHA salts. As already stated, it is not anticipated that the salt form is critical to their performance. Currently. X-β-D-glucuronide is often used as either the CHA salt or the sodium salt. Brenner and colleagues [K. P. Brenner et al, Appl. Environ. Microbiol., 59, 3534-3544, (1993)] found no difference in the performance of the CHA and sodium salt forms with their application using indoxyl-β-D-glucuronide, neither in respect of colour development nor in the recovery of E. coli.
# The two indoxyl glucuronides used produce insoluble endpoints following hydrolysis, as does the CPS ID 3 medium. It was therefore necessary to test these two substrates on agar plates. In contrast, catechol-β-D-glucuronide (1) and DHN-β-D-glucuronide (2b) give much more soluble endpoints best suited to liquid media and were therefore tested in a broth medium. Each broth was prepared using proteose peptone (Oxoid, Basingstoke, UK) (2 g), NaCl (1 g) and FAC (100 mg) in DI water (180 mL). This mixture was autoclaved and cooled to room temperature before being dispensed into bijoux (100×1.8 mL). Catechol β-D-glucuronide CHA salt (1) or DHN-β-D-glucuronide CHA salt (2b) (60 mg) were each dissolved in water (20 mL) and filtered to sterilize before being aseptically dispensed into successive bijoux (0.2 mL) containing the broth solution. The broth/substrate solutions were then inoculated with bacterial suspensions made up to 0.5 McFarland standard (2 μL per bijoux). X-β-D-glucuronide CHA salt (Glycosynth Ltd, Warrington, UK) (10 mg) was dissolved in NMP (200 μL). Rose-β-D-glucuronide CHA salt (Glycosynth Ltd, Warrington, UK) (20 mg) was dissolved in NMP (200 μL). These solutions were then added to Columbia agar (Oxoid, Basingstoke, UK) (100 mL) and inoculated with bacterial suspensions made up to 0.5 McFarland standard (1 μL). The plates and broths were incubated at 37° C. for 18 hours in air.
# [1] = 100 E. coli strains after 18 h incubation
structure (smiles),measurement,setting,value
"O=C(O)[C@H]1O[C@@H](Oc2c[nH]c3ccc(Br)c(Cl)c23)[C@H](O)[C@@H](O)[C@@H]1O [X-β-D-glucuronide CHA salt, 5-bromo-4-chloro-3-indolyl β-D-glucuronide]",% Sensitivity,[1],79%
same,Negative strains,[1],21
same,Positive strains,[1],79
same,colour,E. coli 260262P,Green
same,colour,E. coli 260280Z,Green
same,colour,E. coli 260310H,Green
same,colour,E. coli 260313A,—
same,colour,E. coli 260316T,—
same,colour,E. coli 260327V,Green
same,colour,E. coli 260330Y,Green
same,colour,E. coli 260333P,—
same,colour,E. coli 260345F,Green
same,colour,E. coli 260348K,Green
same,colour,E. coli 260354W,Green
same,colour,E. coli 260364H,—
same,colour,E. coli 260370C,Green
same,colour,E. coli 260375E,Green
same,colour,E. coli 260390B,—
same,colour,E. coli 260396Z,Green
same,colour,E. coli 260398Q,Green
same,colour,E. coli 260400N,—
same,colour,E. coli 260401Q,Green
same,colour,E. coli 260402H,Green
same,colour,E. coli 260404W,Green
same,colour,E. coli 260405P,Green
same,colour,E. coli 260406A,—
same,colour,E. coli 260406Y,Green
same,colour,E. coli 260407F,Green
same,colour,E. coli 260408C,Green
same,colour,E. coli 260411Z,Green
same,colour,E. coli 260412Q,Green
same,colour,E. coli 260414H,Green
same,colour,E. coli 260415Y,Green
same,colour,E. coli 260416W,—
same,colour,E. coli 260417P,Green
same,colour,E. coli 260422Y,Green
same,colour,E. coli 260424P,Green
same,colour,E. coli 260425A,Green
same,colour,E. coli 260426F,Green
same,colour,E. coli 260428T,Green
same,colour,E. coli 260431N,Green
same,colour,E. coli 260432E,Green
same,colour,E. coli 260433H,Green
same,colour,E. coli 260434Y,Green
same,colour,E. coli 260435W,Green
same,colour,E. coli 260436P,Green
same,colour,E. coli 260437A,—
same,colour,E. coli 260438F,Green
same,colour,E. coli 260439C,Green
same,colour,E. coli 260440S,Green
same,colour,E. coli 260441G,Green
same,colour,E. coli 260458Y,Green
same,colour,E. coli 260459W,Green
same,colour,E. coli 260463D,Green
same,colour,E. coli 260464G,Green
same,colour,E. coli 260471B,—
same,colour,E. coli 260478N,—
same,colour,E. coli 260479Q,Green
same,colour,E. coli 260480M,Green
same,colour,E. coli 260481J,Green
same,colour,E. coli 260483R,—
same,colour,E. coli 260485D,Green
same,colour,E. coli 260486L,Green
same,colour,E. coli 260492J,Green
same,colour,E. coli 260494B,Green
same,colour,E. coli 260495R,—
same,colour,E. coli 260497D,Green
same,colour,E. coli 260502G,Green
same,colour,E. coli 260503Z,Green
same,colour,E. coli 260504N,Green
same,colour,E. coli 260505Q,—
same,colour,E. coli 260506E,Green
same,colour,E. coli 260508Y,Green
same,colour,E. coli 260509W,Green
same,colour,E. coli 260510R,Green
same,colour,E. coli 260511X,Green
same,colour,E. coli 260514G,—
same,colour,E. coli 260515Z,—
same,colour,E. coli 260521S,Green
same,colour,E. coli 260522Z,Green
same,colour,E. coli 260532S,Green
same,colour,E. coli 260533G,Green
same,colour,E. coli 260536Q,Green
same,colour,E. coli 260537E,—
same,colour,E. coli 260538H,—
same,colour,E. coli 260539Y,Green
same,colour,E. coli 260541R,Green
same,colour,E. coli 260545G,Green
same,colour,E. coli 260547N,Green
same,colour,E. coli 260548Q,Green
same,colour,E. coli 260549E,Green
same,colour,E. coli 260553X,—
same,colour,E. coli 260554D,Green
same,colour,E. coli 260555L,Green
same,colour,E. coli 260563B,Green
same,colour,E. coli 260564R,Green
same,colour,E. coli 260578D,—
same,colour,E. coli 2603121P,—
same,colour,E. coli 2604399E,Green
same,colour,E. coli O157 non-toxigenic,—
same,colour of positive colonies,in words,green colonies
